These results are taken from US6664069B1, “Use of GABAB receptor agonists in the screening of compounds which are reflux inhibitors” (AstraZeneca AB, priority 1996, dated 2003).

This data set has as its system transient lower esophageal sphincter relaxations (TLESR). As to the kind of experiment: Effect of GABAB receptor agonists on TLESR in dog after nutrient infusion and air insufflation. It counts as in vivo. The settings on record: for TLESR % of control at 90 min / TLESR % of control at 45 min: mean ± SEM; for TLESR % of control at 45 min: first 45 min. The protocol:
Adult Labrador retriever dogs of both sexes (5 males, 3 females) weighing 20-30 kg were used. A cervical esophagostomy was formed to allow intubation. After a recovery period, the dogs were used in control experiments until a stable and reliable control response had been achieved. The dogs were used in other experiments before they were given the GABAB receptor agonists, but they were always allowed a wash-out period of at least two days during which time no drugs were administered. Every fourth experiment on each dog was a control experiment to ensure stability and reproducibility of the results.
The experiments were started at about 8 a.m. at which time the animals had been fasting for approximately 17 hrs. The dog was placed in a Pavlov stand to which it had been accustomed previously. A thin silicone catheter with a distal opening was introduced retrogradely through the esophagostomy into the pharynx to record swallowing. The catheter was perfused with air at approximately 2 ml/min. A multilumen assembly was positioned so that pressures could be recorded in the proximal stomach, LES and at four sites in the distal esophagus. The assembly was fitted with a 6 cm long sleeve to measure LES pressure reliably. Gastric and LES channels were perfused with distilled degassed water at 0.45 ml/min and esophageal channels at 0.1 ml/min. A low-compliance pneumohydraulic pump was used to achieve optimal perfusion conditions. Intraluminal pressures were measured with external pressure transducers. The signals were amplified and acquired using LabWindows/CVI software (version 3.1). Pressure calibrations were done at 0 and 100 mm Hg with the multilumen assemblies placed at a level slightly below the pressure transducers. The dog was positioned so that the average intragastric (i.g.) pressure approximated 0 mm Hg. An antimony pH-electrode was positioned 3 cm orad to the upper margin of the LES, and the signals were acquired as described above. Analysis of acquired signals was made using LabWindows software.
Baseline measurement was done for at least 10 min, and then vehicle (0.9% NaCl; 0.5 ml/kg) or a GABAB receptor agonist was given i.v. over 2 min. Ten min after the completion of the administration, nutrient was infused i.g. via the multilumen assembly at a rate of 100 ml/min (30 ml/kg). GABA was given as a continuous i.v. infusion which commenced 10 min before nutrient administration; and R, S,-baclofen was in some cases given intragastrically 30 min before nutrient. The nutrient contained 10% peptone (w/v), 5% Intralipid (v/v) and 5% D-glucose (w/v) and was acidified to pH 3.0 with HCl. Immediately after the infusion, air was insufflated at 40 ml/min to make up a total time of 90 min starting from the commencement of nutrient infusion. The dog was then extubated and a baseline measurement was done to ensure that no drift had occurred.
A TLESR was identified by the following criteria; The difference between LES and i.g. pressures was less than 2 mm Hg, the duration was more than 0.5 s and the relaxation was not triggered by primary peristalsis (i.e. by a pharyngeal signal). The rate of pressure drop was more than 10 mm Hg/s. Most, but not all, TLESR could also be detected aurally by a characteristic noise at the esophagostomy (i.e. belching). The total number of TLESR was calculated for the first 45 min period and entire experiment (90 min). The effect of GABAB receptor agonists was expressed relative to individual control data (n≧5). Each agonist was tested in at least two different dogs.

Where [1] appears, read: 1.8 mg/kg as intravenous infusion over 100 min.
Setting [2] is: 5.4 mg/kg as intravenous infusion over 100 min.
Where [3] appears, read: 1.5 mg/kg intragastric admin. 30 min before nutrient.

SMILES strings stand for the structures.

Regarding `CP(=O)(O)C[C@@H](O)CN` [(3-amino-2-(S)-hydroxypropyl)methylphosphinic acid], under “0.03 mg/kg intravenously”, the “TLESR % of control at 90 min” value is reported as 65 ± 10 % of control and the “TLESR % of control at 45 min” value is 53 ± 7 % of control. Besides, for the setting “0.3 mg/kg intravenously”, the “TLESR % of control at 90 min” value is 38 ± 6 % of control and the “TLESR % of control at 45 min” value was 0 ± 0 % of control.

As to `NCCCC(=O)O` [GABA, 4-aminobutanoic acid], under setting [1], the “TLESR % of control at 90 min” value was 61 ± 3 % of control and the “TLESR % of control at 45 min” value is on record as 62 ± 2 % of control. Further, under setting [2], the “TLESR % of control at 90 min” value was 54 ± 10 % of control and the “TLESR % of control at 45 min” value is listed as 57 ± 6 % of control.

As to `NC[C@@H](CC(=O)O)c1ccc(Cl)cc1` [S-baclofen], under “1.5 mg/kg intravenously”, the “TLESR % of control at 90 min” value is 92 ± 10 % of control and the “TLESR % of control at 45 min” value is recorded as 76 ± 10 % of control.

In the case of `NC[C@H](CC(=O)O)c1ccc(Cl)cc1` [R-baclofen], where the note is “0.3 mg/kg intravenously”, the “TLESR % of control at 90 min” value is given as 40 ± 11 % of control and the “TLESR % of control at 45 min” value is on record as 36 ± 10 % of control.

Regarding `NCC(CC(=O)O)c1ccc(Cl)cc1` (racemic) [R, S-baclofen, 4-amino-3-(4-chlorophenyl)butanoic acid], the “TLESR % of control at 90 min” value is 66 ± 8 % of control (0.3 mg/kg intravenously), 54 ± 12 % of control under setting [3] and 43 ± 19 % of control (1.5 mg/kg intravenously). The “TLESR % of control at 45 min” value runs as follows: (0.3 mg/kg intravenously) 47 ± 6 % of control; under setting [3], 12 ± 6 % of control; (1.5 mg/kg intravenously) 11 ± 6 % of control. Where the note is “high R,S-baclofen dose, disappeared approximately one hour after the administration”, the behavioural side effects entry is reported as “some sedation”.

Regarding `CP(=O)(O)CCCN` [(3-aminopropyl)methylphosphinic acid], the “TLESR % of control at 90 min” value is given as 76 ± 5 % of control (0.003 mg/kg intravenously), 39 ± 7 % of control (0.01 mg/kg intravenously), 50 ± 17 % of control (0.03 mg/kg intravenously) and 33 ± 9 % of control (0.1 mg/kg intravenously). The “TLESR % of control at 45 min” value by setting is: (0.003 mg/kg intravenously) 57 ± 12 % of control; (0.01 mg/kg intravenously) 32 ± 8 % of control; (0.03 mg/kg intravenously) 25 ± 4 % of control; (0.1 mg/kg intravenously) 5 ± 5 % of control.
